The values below come from ChEMBL document CHEMBL1909046, “DrugMatrix in vitro pharmacology data”.

The target of series [1] is Sodium-dependent noradrenaline transporter (Homo sapiens, UniProt P23975). As to the kind of experiment: DRUGMATRIX: Norepinephrine Transporter radioligand binding (ligand: [125I] RTI-55). As to conditions: Not Active = under 50% inhibition at 10 µM. The format is cell membranes, MDCK, Membrane.
The target in another series is D(3) dopamine receptor (Homo sapiens, UniProt P35462). Put plainly: DRUGMATRIX: Dopamine D3 radioligand binding (ligand: [3H] Spiperone). The format is cell membranes, CHO, Membrane.
Chain of D(3) dopamine receptor (P35462 whole entry): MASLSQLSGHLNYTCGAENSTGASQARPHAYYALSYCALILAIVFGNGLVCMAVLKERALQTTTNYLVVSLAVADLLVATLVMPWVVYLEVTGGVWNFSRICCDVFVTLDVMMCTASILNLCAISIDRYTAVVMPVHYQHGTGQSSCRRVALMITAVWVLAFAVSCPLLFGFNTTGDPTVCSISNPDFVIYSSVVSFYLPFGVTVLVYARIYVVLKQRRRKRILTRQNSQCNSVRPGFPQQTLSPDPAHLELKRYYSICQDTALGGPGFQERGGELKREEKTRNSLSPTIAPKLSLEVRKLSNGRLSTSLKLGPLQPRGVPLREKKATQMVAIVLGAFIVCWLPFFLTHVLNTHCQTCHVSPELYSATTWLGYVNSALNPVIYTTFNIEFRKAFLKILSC
The target in series [2] is Kappa-type opioid receptor (Homo sapiens, UniProt P41145). As to the kind of experiment: DRUGMATRIX: Opiate kappa (OP2, KOP) radioligand binding (ligand: [3H] Diprenorphine). The series is classed as cell membranes, HEK293, Membrane. The settings on record: Not Active = under 50% inhibition at 10 µM.
Chain of Kappa-type opioid receptor (P41145 whole entry): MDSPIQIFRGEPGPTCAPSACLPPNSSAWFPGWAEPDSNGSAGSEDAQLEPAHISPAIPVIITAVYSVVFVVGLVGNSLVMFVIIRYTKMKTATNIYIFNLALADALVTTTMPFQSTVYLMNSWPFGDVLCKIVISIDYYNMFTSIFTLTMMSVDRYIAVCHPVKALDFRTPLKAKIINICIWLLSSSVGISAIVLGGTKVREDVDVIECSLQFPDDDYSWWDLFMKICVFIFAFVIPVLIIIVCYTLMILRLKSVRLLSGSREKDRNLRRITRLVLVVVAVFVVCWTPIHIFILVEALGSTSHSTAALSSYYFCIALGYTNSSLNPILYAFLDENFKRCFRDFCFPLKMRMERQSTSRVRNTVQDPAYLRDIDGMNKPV
Another series has as its target Cytochrome P450 2C9 (Homo sapiens, UniProt P11712). As to conditions: bti-tn-5b1-4. Further: in other assays of this panel Not Active means under 50% inhibition at 10 µM.
In a further series the target is T1, Estrogen receptor (Homo sapiens, UniProt P03372).
T1 sequence (P03372 whole entry): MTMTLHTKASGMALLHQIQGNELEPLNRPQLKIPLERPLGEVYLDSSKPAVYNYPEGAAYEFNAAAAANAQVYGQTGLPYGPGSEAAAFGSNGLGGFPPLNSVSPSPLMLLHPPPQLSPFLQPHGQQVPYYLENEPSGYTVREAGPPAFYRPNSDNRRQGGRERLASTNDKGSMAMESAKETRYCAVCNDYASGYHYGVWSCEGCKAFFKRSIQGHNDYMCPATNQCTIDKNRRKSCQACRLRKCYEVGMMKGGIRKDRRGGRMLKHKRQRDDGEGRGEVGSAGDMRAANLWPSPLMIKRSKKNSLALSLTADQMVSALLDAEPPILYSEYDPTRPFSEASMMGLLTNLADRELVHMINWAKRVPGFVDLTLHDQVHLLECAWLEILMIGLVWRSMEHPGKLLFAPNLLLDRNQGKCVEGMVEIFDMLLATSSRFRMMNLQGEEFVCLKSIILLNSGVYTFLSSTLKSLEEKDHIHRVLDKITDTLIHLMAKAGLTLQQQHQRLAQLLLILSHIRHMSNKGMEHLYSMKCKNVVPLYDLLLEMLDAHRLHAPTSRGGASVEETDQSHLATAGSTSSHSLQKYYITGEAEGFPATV
As to conditions: sf9.

The next series concerns the target Estrogen receptor beta (Homo sapiens, UniProt Q92731). As to conditions: sf9. Further: in other assays of this panel Not Active means under 50% inhibition at 10 µM.
The next series has as its target T2, Androgen receptor (Rattus norvegicus, UniProt P15207). Further: in other assays of this panel Not Active means under 50% inhibition at 10 µM.
T2 sequence (P15207 whole entry): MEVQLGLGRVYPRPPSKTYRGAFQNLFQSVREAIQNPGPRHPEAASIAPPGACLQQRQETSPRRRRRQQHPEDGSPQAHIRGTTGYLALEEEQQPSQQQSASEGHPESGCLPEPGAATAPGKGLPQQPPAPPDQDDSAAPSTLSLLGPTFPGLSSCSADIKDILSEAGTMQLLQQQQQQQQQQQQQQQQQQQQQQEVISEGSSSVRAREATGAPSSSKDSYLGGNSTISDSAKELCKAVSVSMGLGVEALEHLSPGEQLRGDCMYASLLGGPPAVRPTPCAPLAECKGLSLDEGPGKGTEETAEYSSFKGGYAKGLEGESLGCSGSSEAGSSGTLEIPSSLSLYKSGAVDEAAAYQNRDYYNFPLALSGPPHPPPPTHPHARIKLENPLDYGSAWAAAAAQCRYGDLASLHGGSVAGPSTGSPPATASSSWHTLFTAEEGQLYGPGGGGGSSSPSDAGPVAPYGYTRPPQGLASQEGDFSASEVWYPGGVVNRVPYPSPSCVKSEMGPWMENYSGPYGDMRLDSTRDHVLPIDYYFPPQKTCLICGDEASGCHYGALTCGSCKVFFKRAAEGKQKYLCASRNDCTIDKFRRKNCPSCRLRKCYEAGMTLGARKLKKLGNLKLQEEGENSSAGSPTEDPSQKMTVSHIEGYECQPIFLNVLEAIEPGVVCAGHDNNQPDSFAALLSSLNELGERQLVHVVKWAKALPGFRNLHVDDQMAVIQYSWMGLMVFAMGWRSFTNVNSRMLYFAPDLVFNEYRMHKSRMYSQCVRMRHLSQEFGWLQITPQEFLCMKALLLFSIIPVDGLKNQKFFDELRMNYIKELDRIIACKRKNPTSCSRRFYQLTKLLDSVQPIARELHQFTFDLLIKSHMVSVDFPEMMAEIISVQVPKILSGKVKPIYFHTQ

Chain of Cytochrome P450 2C9 (P11712 whole entry): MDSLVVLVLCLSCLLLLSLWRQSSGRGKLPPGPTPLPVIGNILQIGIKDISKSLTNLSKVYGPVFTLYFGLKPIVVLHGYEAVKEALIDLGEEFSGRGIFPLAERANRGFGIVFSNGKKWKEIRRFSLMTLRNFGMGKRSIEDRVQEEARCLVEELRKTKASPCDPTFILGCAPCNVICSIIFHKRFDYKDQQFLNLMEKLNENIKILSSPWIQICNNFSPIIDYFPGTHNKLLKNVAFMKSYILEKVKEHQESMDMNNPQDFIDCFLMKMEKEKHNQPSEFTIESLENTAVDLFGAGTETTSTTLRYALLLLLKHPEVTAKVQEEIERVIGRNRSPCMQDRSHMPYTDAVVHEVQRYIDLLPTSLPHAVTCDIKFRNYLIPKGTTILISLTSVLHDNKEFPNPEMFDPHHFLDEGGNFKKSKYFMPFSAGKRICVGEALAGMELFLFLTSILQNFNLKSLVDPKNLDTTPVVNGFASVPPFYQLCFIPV
Chain of Sodium-dependent noradrenaline transporter (P23975 whole entry): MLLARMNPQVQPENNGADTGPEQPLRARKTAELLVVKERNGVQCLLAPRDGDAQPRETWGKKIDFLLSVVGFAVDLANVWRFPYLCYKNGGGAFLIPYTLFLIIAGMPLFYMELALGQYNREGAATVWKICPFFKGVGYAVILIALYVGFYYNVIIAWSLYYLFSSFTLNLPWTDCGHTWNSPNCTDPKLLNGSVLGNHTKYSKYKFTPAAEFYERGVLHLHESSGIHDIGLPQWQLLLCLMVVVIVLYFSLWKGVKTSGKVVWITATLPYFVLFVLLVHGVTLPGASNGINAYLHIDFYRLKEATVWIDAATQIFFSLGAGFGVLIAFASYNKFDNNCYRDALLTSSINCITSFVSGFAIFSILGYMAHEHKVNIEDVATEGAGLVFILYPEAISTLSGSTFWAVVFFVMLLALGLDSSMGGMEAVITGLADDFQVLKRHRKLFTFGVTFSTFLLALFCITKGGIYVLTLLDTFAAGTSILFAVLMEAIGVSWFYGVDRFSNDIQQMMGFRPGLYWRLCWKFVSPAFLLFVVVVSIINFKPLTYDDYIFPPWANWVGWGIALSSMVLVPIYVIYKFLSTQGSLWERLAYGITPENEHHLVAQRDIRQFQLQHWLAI
Chain of Estrogen receptor beta (Q92731 whole entry): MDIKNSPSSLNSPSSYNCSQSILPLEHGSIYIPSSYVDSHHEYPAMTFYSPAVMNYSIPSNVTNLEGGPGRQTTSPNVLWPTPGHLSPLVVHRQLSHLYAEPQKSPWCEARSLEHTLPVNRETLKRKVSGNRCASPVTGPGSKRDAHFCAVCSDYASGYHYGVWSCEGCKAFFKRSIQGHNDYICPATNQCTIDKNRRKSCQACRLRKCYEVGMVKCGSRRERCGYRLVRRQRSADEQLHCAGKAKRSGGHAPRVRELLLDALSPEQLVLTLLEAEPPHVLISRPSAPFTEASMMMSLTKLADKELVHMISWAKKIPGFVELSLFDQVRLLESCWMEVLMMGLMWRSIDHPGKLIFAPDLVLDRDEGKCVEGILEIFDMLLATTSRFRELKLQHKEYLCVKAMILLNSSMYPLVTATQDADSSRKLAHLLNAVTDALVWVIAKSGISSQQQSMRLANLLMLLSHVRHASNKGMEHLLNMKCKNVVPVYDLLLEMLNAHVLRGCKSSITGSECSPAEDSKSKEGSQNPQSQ

Consider `CC(C)(C)NC[C@H](O)COc1cccc2c1CCCC2=O` [LEVOBUNOLOL], for which the IC50 entry (in series [1] (mdck); on D(3) dopamine receptor (cho); in series [2] (hek293); against Cytochrome P450 2C9; at Estrogen receptor; against Estrogen receptor beta) was “Not Active” each time. In addition, on Cytochrome P450 2C9, the inhibition constant Ki result was “Not Active”.

Regarding `CCN1CCCC1CNC(=O)c1cc(S(N)(=O)=O)ccc1OC` (stereo unspecified) [SULPIRIDE], the IC50 result (in series [1] (mdck); in series [2] (hek293); on Androgen receptor; at Cytochrome P450 2C9; against Estrogen receptor beta) was “Not Active” throughout. Further, at Cytochrome P450 2C9, the inhibition constant Ki entry was “Not Active”.

Regarding `CCN(CC)C(=S)SSC(=S)N(CC)CC`, the 50% inhibitory concentration (IC50) at D(3) dopamine receptor (read-out: IC50) is 1080 nM; in series [2] (read-out: IC50) it was 6100 nM; against Androgen receptor, “Not Active”; on Cytochrome P450 2C9, “Not Active”; on Estrogen receptor, “Not Active”; against Estrogen receptor beta, “Not Active”. The values for the Ki (on D(3) dopamine receptor (read-out: Ki); in series [2]; on Cytochrome P450 2C9) were 368 nM, 2440 nM and “Not Active”, respectively.

Turning to `CCN(CC)CCNC(=O)c1cc(Cl)c(N)cc1OC` [METOCLOPRAMIDE], the IC50 result is “Not Active” in series [1] (mdck); 200 nM on D(3) dopamine receptor (read-out: IC50); “Not Active” in series [2] (hek293); “Not Active” against Cytochrome P450 2C9; “Not Active” against Estrogen receptor; “Not Active” on Estrogen receptor beta. The inhibition constant Ki at D(3) dopamine receptor (read-out: Ki) was 68 nM; on Cytochrome P450 2C9 it was “Not Active”.

Regarding `Cc1nnc(NS(=O)(=O)c2ccc(N)cc2)s1` [SULFAMETHIZOLE], the half-maximal inhibitory concentration (IC50) result (in series [1] (mdck); at D(3) dopamine receptor (cho); in series [2] (hek293); at Androgen receptor; at Cytochrome P450 2C9; against Estrogen receptor) was “Not Active” each time. Moreover, the inhibition constant Ki entry at Cytochrome P450 2C9 was “Not Active”.

For `Oc1ccc(/C=C/c2cc(O)cc(O)c2)cc1` [RESVERATROL], the IC50 in series [1] (read-out: IC50) was 2310 nM; at D(3) dopamine receptor (cho) it was “Not Active”; against Androgen receptor it was “Not Active”; on Estrogen receptor, “Not Active”. In addition, the Ki in series [1] (read-out: Ki) was found to be 2290 nM.

As to `Cc1cnc(NC(=O)C2=C(O)c3ccccc3S(=O)(=O)N2C)s1` [MELOXICAM], the IC50 entry (in series [1] (mdck); on D(3) dopamine receptor (cho); in series [2] (hek293); against Cytochrome P450 2C9; at Estrogen receptor; on Estrogen receptor beta) was “Not Active” each time. On Cytochrome P450 2C9, the inhibition constant (Ki) result was “Not Active”.

For `CC[C@H](C)[C@@H](CO[C@@H](Cc1ccccc1)C(=O)N[C@@H](CCS(C)(=O)=O)C(=O)OC(C)C)NC[C@@H](N)CS`, the 50% inhibitory concentration (IC50) entry is “Not Active” in series [1] (mdck); 28 nM at D(3) dopamine receptor (read-out: IC50); “Not Active” in series [2] (hek293); “Not Active” at Androgen receptor; “Not Active” on Cytochrome P450 2C9; “Not Active” against Estrogen receptor. On Estrogen receptor beta, the half-inhibitory concentration (IC50) result was “Not Active”. The values for the Ki at D(3) dopamine receptor (read-out: Ki) and at Cytochrome P450 2C9 were 9.63 nM and “Not Active”, respectively.

Consider `CN(C)CCC=C1c2ccccc2COc2ccccc21` [DOXEPIN], for which the half-inhibitory concentration (IC50) entry (in series [2] (hek293); against Androgen receptor; on Cytochrome P450 2C9) was “Not Active” each time. On Cytochrome P450 2C9, the Ki entry is “Not Active”.

For the molecule `O=[As][O-].[Na+]` [SODIUM ARSENITE], the IC50 result (in series [1] (mdck); on D(3) dopamine receptor (cho); at Androgen receptor; against Cytochrome P450 2C9; against Estrogen receptor; against Estrogen receptor beta) was “Not Active” each time. The Ki result on Cytochrome P450 2C9 is “Not Active”.

With `COC(=O)Nc1nc2ccc(C(=O)c3ccccc3)cc2[nH]1` [MEBENDAZOLE], the IC50 entry (in series [1] (mdck); on D(3) dopamine receptor (cho); in series [2] (hek293); on Androgen receptor; at Cytochrome P450 2C9; at Estrogen receptor) was “Not Active” throughout. In addition, the Ki entry at Cytochrome P450 2C9 was “Not Active”.

For LEAD(IV) ACETATE, the IC50 entry (in series [1] (mdck); at D(3) dopamine receptor (cho); on Androgen receptor; on Cytochrome P450 2C9; against Estrogen receptor; at Estrogen receptor beta) was “Not Active” throughout. Moreover, the inhibitory constant (Ki) entry (in series [1] (mdck); on D(3) dopamine receptor (cho); at Androgen receptor; at Cytochrome P450 2C9; at Estrogen receptor; on Estrogen receptor beta) was “Not Active” in each case.

In the case of `Cc1[nH]c(=O)c(C#N)cc1-c1ccncc1` [MILRINONE], the half-inhibitory concentration (IC50) entry (in series [1] (mdck); at D(3) dopamine receptor (cho); in series [2] (hek293); against Cytochrome P450 2C9; against Estrogen receptor; at Estrogen receptor beta) was “Not Active” throughout. At Cytochrome P450 2C9, the inhibition constant (Ki) entry is listed as “Not Active”.

On to `Cc1ccc(S(=O)(=O)NC(=O)NN2CCCCCC2)cc1` [TOLAZAMIDE], for which the IC50 result (in series [1] (mdck); on D(3) dopamine receptor (cho); in series [2] (hek293); against Estrogen receptor; against Estrogen receptor beta) was “Not Active” throughout.

Consider `CC(N)C12CC3CC(CC(C3)C1)C2` (stereo unspecified) [RIMANTADINE], for which the IC50 result (in series [1] (mdck); on D(3) dopamine receptor (cho); in series [2] (hek293); against Cytochrome P450 2C9; against Estrogen receptor; against Estrogen receptor beta) was “Not Active” in each case. For the same molecule, on Cytochrome P450 2C9, the Ki entry was “Not Active”.

`Cc1cccc(C)c1NC(=O)C(C)N` (stereo unspecified) [TOCAINIDE]: the concentration for half-maximal inhibition (IC50) result (in series [1] (mdck); on D(3) dopamine receptor (cho); in series [2] (hek293); on Cytochrome P450 2C9; at Estrogen receptor; against Estrogen receptor beta) was “Not Active” throughout. The inhibition constant Ki entry on Cytochrome P450 2C9 is listed as “Not Active”.

In the case of `Nc1nc(N)c2nc(-c3ccccc3)c(N)nc2n1`, the IC50 result (in series [1] (mdck); at D(3) dopamine receptor (cho); in series [2] (hek293); at Androgen receptor; on Estrogen receptor; against Estrogen receptor beta) was “Not Active” in each case.

As for `CC[C@@]1(O)C(=O)OCc2c1cc1n(c2=O)Cc2cc3c(CN(C)C)c(O)ccc3nc2-1` [TOPOTECAN], the concentration for half-maximal inhibition (IC50) entry (in series [1] (mdck); on D(3) dopamine receptor (cho); in series [2] (hek293); on Cytochrome P450 2C9; against Estrogen receptor; at Estrogen receptor beta) was “Not Active” throughout. The inhibition constant Ki result at Cytochrome P450 2C9 is “Not Active”.

Turning to `Cc1ccc(Cl)c(Nc2ccccc2C(=O)O)c1Cl` [MECLOFENAMIC ACID], the IC50 result (in series [1] (mdck); on D(3) dopamine receptor (cho); in series [2] (hek293); at Cytochrome P450 2C9; against Estrogen receptor; against Estrogen receptor beta) was “Not Active” throughout. Moreover, the Ki result on Cytochrome P450 2C9 was “Not Active”.

In the case of `CN1C(=O)OC(C)(C)C1=O` [TRIMETHADIONE], the IC50 entry (in series [1] (mdck); on D(3) dopamine receptor (cho); in series [2] (hek293); against Estrogen receptor; at Estrogen receptor beta) was “Not Active” in each case.

As to `CC1(C)[C@H](C(=O)O)N2C(=O)C[C@H]2S1(=O)=O` [SULBACTAM], the IC50 entry (in series [1] (mdck); on D(3) dopamine receptor (cho); in series [2] (hek293); against Cytochrome P450 2C9; against Estrogen receptor; at Estrogen receptor beta) was “Not Active” in each case. Also, on Cytochrome P450 2C9, the Ki entry is “Not Active”.
